This note sets out measurements from US20230364070A1, “PYRROLO[3,2-C]PYRIDIN-4-ONE DERIVATIVES USEFUL IN THE TREATMENT OF CANCER” (Scorpion Therapeutics, Inc., priority 2020, published 2023).

Molecules are shown by their SMILES. Where only a bound is given, the exact number is not on record here.

Type in all cases: cell-based
Experiment [1] deals with T1, Ba/F3 cells with EGFR exon 20 ASV Ins V769_D770 (Homo sapiens, UniProt P00533, INS769ASV).
T1 construct: expressed in transfected cells; host or cells: Ba/F3 (murine pro-B cells), retroviral transduction, puromycin selection, IL3-independent pool
T1 sequence (P00533 with tags, fused parts or gaps INS769ASV): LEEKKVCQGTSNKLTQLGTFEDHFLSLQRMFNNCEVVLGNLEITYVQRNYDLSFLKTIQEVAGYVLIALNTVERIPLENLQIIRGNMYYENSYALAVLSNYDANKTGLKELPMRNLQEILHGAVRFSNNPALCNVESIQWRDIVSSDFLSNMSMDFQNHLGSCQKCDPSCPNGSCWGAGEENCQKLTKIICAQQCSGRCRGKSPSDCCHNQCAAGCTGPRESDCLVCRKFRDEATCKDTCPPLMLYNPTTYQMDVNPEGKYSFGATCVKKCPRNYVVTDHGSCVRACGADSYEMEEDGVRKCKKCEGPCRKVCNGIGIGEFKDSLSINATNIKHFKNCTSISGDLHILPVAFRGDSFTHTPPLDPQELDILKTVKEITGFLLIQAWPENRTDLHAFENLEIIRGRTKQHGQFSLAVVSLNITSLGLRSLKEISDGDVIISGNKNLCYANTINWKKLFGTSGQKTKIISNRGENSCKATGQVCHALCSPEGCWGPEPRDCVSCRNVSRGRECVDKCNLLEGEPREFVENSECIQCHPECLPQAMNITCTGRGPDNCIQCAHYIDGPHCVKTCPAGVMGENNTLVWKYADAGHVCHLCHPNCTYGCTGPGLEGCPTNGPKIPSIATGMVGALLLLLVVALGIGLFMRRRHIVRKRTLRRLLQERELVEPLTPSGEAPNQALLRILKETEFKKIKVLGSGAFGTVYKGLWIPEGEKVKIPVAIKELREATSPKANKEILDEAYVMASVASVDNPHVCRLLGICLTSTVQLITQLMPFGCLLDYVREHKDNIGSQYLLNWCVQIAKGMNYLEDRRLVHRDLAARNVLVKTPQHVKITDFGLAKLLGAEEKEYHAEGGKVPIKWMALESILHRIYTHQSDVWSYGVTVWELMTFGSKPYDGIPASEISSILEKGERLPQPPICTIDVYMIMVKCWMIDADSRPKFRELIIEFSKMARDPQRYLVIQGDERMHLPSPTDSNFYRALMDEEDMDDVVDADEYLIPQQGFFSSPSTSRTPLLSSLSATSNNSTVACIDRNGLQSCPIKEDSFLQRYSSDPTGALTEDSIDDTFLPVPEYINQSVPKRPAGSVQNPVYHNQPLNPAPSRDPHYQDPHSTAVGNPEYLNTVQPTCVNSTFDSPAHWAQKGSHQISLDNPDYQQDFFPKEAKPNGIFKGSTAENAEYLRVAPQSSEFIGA
The experiment can be described thus: EGFR activity: Ba/F3 cell viability (CellTiter-Glo, 72 h), EGFR exon 20 ASV insertion. Particulars: EGFR exon 20 ASV Ins V769_D770, cell viability, read-out: BaF3 ASV IC50. In general terms: In ATP-based viability assays light output follows the ATP content of the culture.

A further experiment deals with T2, pEGFR in CUTO14 cells (Homo sapiens, UniProt P00533, DUP767-769).
T2 construct: endogenous in cells; host or cells: CUTO14 cells
T2 sequence (P00533 with tags, fused parts or gaps DUP767-769): as the sequence (P00533 with tags, fused parts or gaps INS769ASV) above
The experiment can be described thus: Inhibitor activity on EGFR phosphorylation (pEGFR AlphaLISA, 2 h), CUTO14 cells. The protocol:
CUTO14 cells were obtained from Dr. Robert C. Doebele at the University of Colorado.
Shake 350 rpm for 1 hr in the dark • 3.4 Prepare donor mix under low light conditions prior to use. Dispense 5 μL of donor mix to all the wells. Mix well on the shaker, seal and wrap in aluminum foil and incubate 1.5 hrs at room temperature in the dark • 3.5 Transfer 18.5 μL mixture to OptiPlate 384, and read using an Envision.
On the technique in general: Alpha assays give light when donor and acceptor beads are brought close together.

The target of another experiment is T3, Ba/F3 cells with EGFR WT (Homo sapiens, UniProt P00533).
T3 construct: expressed in transfected cells; host or cells: Ba/F3 (murine pro-B cells), retroviral transduction, puromycin selection, maintained with EGF
T3 sequence (P00533 25-1210): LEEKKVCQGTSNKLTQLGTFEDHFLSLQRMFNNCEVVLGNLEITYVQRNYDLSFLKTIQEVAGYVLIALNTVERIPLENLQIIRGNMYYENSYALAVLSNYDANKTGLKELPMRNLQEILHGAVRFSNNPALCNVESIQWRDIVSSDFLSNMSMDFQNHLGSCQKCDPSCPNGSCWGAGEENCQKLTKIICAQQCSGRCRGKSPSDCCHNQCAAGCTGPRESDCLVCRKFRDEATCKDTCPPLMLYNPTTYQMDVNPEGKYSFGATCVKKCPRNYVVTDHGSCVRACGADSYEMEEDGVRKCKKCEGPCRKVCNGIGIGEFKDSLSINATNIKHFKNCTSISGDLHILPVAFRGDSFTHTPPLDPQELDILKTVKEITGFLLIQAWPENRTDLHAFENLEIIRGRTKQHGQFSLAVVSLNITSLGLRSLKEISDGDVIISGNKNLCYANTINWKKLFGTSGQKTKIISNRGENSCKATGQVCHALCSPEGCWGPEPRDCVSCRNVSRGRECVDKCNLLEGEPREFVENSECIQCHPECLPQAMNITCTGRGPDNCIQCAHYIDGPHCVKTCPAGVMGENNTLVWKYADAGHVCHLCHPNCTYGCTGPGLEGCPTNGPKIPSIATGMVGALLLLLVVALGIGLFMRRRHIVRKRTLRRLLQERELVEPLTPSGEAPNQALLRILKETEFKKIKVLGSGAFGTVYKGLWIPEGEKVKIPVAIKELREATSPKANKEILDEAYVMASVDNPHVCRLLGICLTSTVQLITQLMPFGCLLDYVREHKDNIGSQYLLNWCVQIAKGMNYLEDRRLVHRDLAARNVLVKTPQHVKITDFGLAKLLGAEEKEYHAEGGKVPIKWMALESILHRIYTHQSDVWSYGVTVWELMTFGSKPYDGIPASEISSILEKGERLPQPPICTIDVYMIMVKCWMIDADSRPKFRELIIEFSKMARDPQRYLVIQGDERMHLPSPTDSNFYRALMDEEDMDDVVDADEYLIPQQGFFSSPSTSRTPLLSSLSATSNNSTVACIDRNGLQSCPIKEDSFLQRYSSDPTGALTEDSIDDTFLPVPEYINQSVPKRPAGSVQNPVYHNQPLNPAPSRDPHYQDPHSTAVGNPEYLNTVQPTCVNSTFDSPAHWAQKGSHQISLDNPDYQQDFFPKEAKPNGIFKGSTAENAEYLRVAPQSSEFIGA
In words: EGFR activity: Ba/F3 cell viability (CellTiter-Glo, 72 h), EGFR WT. To be noted: read-out: BaF3 WT IC50.

Experiment [2] addresses T4, Ba/F3 cells with EGFR exon 20 NPG Ins D770_N771 (Homo sapiens, UniProt P00533, INS770NPG).
T4 construct: expressed in transfected cells; host or cells: Ba/F3 (murine pro-B cells), retroviral transduction, puromycin selection, IL3-independent pool
The experiment can be described thus: EGFR activity: Ba/F3 cell viability (CellTiter-Glo, 72 h), EGFR exon 20 NPG insertion. To be noted: EGFR exon 20 NPG Ins D770_N771, cell viability, read-out: BaF3 NPG IC50.

T4 sequence (P00533 with tags, fused parts or gaps INS770NPG): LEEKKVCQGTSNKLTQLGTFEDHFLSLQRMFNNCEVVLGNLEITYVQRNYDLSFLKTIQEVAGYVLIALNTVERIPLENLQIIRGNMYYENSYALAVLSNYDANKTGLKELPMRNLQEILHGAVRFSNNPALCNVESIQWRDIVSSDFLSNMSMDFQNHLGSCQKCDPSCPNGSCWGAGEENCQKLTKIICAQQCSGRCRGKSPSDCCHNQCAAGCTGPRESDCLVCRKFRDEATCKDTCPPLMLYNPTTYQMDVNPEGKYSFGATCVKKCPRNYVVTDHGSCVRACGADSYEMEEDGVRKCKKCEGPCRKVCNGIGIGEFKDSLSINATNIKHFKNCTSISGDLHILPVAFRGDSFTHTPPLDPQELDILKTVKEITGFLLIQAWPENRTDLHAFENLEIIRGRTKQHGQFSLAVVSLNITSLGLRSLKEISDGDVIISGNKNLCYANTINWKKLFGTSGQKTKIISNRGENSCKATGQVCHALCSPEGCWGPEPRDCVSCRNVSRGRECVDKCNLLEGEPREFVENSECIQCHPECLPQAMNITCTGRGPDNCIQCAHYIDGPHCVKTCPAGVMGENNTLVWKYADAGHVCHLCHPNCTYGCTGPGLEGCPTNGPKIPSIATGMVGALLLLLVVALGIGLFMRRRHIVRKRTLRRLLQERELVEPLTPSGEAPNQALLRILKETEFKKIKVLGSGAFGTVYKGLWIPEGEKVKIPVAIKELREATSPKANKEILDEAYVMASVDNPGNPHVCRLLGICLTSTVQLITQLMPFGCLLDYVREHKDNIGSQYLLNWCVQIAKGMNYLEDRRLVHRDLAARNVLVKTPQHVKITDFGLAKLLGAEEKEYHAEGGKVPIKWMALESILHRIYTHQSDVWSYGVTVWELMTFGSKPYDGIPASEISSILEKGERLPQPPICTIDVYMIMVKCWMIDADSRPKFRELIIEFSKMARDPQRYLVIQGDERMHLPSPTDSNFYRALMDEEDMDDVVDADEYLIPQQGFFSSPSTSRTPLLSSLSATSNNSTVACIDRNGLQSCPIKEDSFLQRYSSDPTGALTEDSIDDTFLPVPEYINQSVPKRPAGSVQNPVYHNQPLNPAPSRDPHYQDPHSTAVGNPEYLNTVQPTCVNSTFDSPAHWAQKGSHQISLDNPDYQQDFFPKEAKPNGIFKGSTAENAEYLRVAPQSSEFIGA

As a reminder, the IC50 is the midpoint of a concentration-inhibition curve. As for `C=CC(=O)N1[C@H](COc2cnccc2-c2[nH]c3c(c2Nc2cccc(Cl)c2OC)C(=O)NCC3)C[C@@H]1C` [compound 273], the IC50 (in experiment [1]; on pEGFR in CUTO14 cells; at Ba/F3 cells with EGFR WT; in experiment [2]) was < 100 nM throughout.
Regarding `C=CC(=O)NC(C)(C)C#Cc1cnccc1-c1[nH]c2c(c1Nc1cccc(F)c1C)C(=O)NCC2` [compound 385], the IC50 (in experiment [1]; on pEGFR in CUTO14 cells; at Ba/F3 cells with EGFR WT; in experiment [2]) was < 100 nM throughout.
With `COc1c(F)cccc1Nc1c(-c2ccncc2C#CC(C)(C)NC(=O)/C=C/CN[C@@H]2CCOC2)[nH]c2c1C(=O)NCC2` [compound 394], the IC50 in experiment [1] is 100 to 1000 nM; at pEGFR in CUTO14 cells, 100 to 1000 nM; at Ba/F3 cells with EGFR WT it was > 1000 nM; in experiment [2], 100 to 1000 nM.
In the case of `C=CC(=O)NC1(C#Cc2cnccc2-c2[nH]c3c(c2Nc2cccc(Cl)c2OC)C(=O)NCC3)CCN(C)CC1` [compound 411], the IC50 in experiment [1] was 100 to 1000 nM; at pEGFR in CUTO14 cells it was 100 to 1000 nM; on Ba/F3 cells with EGFR WT, > 1000 nM; in experiment [2] it was 100 to 1000 nM.
Consider `CC#CC(=O)N1CC[C@@]1(C)COc1cnccc1-c1[nH]c2c(c1Nc1cccc(Cl)c1OC)C(=O)NCC2` [compound 358], for which the IC50 in experiment [1] was 100 to 1000 nM; against pEGFR in CUTO14 cells, 100 to 1000 nM; on Ba/F3 cells with EGFR WT, > 1000 nM; in experiment [2], 100 to 1000 nM.
`C=CC(=O)N1CC2CC1(C#Cc1cnccc1-c1[nH]c3c(c1Nc1cccc(F)c1C)C(=O)NCC3)C2` [compound 452]: the IC50 in experiment [1] is < 100 nM; at pEGFR in CUTO14 cells, < 100 nM; at Ba/F3 cells with EGFR WT, 100 to 1000 nM; in experiment [2] it was < 100 nM.
With `C=CC(=O)N1[C@H](COc2cnccc2-c2[nH]c3c(c2Nc2cccc(Cl)c2OC)C(=O)NCC3)C[C@H]1C` [compound 270], the IC50 in experiment [1] is < 100 nM; on pEGFR in CUTO14 cells, < 100 nM; at Ba/F3 cells with EGFR WT it was 100 to 1000 nM; in experiment [2] it was < 100 nM.
Consider `Cc1c(F)cccc1Nc1c(-c2ccncc2C#CC23CC(CN2C(=O)/C=C/CN(C)C)C3)[nH]c2c1C(=O)NCC2` [compound 451], for which the IC50 in experiment [1] is < 100 nM; against pEGFR in CUTO14 cells it was < 100 nM; at Ba/F3 cells with EGFR WT, 100 to 1000 nM; in experiment [2] it was < 100 nM.
Turning to `C=C(F)C(=O)NC(C)(C)C#Cc1cnccc1-c1[nH]c2c(c1Nc1cccc(Cl)c1OC)C(=O)NCC2` [compound 390], the IC50 in experiment [1] is < 100 nM; against pEGFR in CUTO14 cells, < 100 nM; on Ba/F3 cells with EGFR WT, 100 to 1000 nM; in experiment [2] it was < 100 nM.
In the case of `COc1c(F)cccc1Nc1c(-c2ccncc2C#CC(C)(C)NC(=O)/C=C/CN2CCCC2)[nH]c2c1C(=O)NCC2` [compound 392], the concentration for half-maximal inhibition (IC50) in experiment [1] was < 100 nM; at pEGFR in CUTO14 cells, < 100 nM; at Ba/F3 cells with EGFR WT, 100 to 1000 nM; in experiment [2] it was < 100 nM.
As for `COc1c(F)cccc1Nc1c(-c2ccncc2C#C[C@@]2(C)CCCN2C(=O)/C=C/CN2CC(OC)C2)[nH]c2c1C(=O)NCC2` [compound 441], the IC50 in experiment [1] is < 100 nM; on pEGFR in CUTO14 cells it was < 100 nM; on Ba/F3 cells with EGFR WT it was 100 to 1000 nM; in experiment [2], < 100 nM.
On to `COc1c(F)cccc1Nc1c(-c2ccncc2C#C[C@@]2(NC(=O)/C=C/CN(C)C)CCOC2)[nH]c2c1C(=O)NCC2` [compound 419], for which the IC50 was 100 to 1000 nM in experiment [1], 100 to 1000 nM at pEGFR in CUTO14 cells, > 1000 nM on Ba/F3 cells with EGFR WT and 100 to 1000 nM in experiment [2].
Consider `COc1c(F)cccc1Nc1c(-c2ccncc2OC[C@@]2(C)CCN2C(=O)/C=C/CN(C)C)[nH]c2c1C(=O)NCC2` [compound 422], for which the IC50 is < 100 nM in experiment [1], < 100 nM against pEGFR in CUTO14 cells, 100 to 1000 nM on Ba/F3 cells with EGFR WT and < 100 nM in experiment [2].
Regarding `C=CC(=O)N[C@@]1(C#Cc2cnccc2-c2[nH]c3c(c2Nc2cccc(F)c2C)C(=O)NCC3)CCOC1` [compound 386], the IC50 in experiment [1] is < 100 nM; against pEGFR in CUTO14 cells, < 100 nM; at Ba/F3 cells with EGFR WT, 100 to 1000 nM; in experiment [2], < 100 nM.
With `COc1c(Cl)cccc1Nc1c(-c2ccncc2C#C[C@]2(NC(=O)/C=C/CN(C)C)CCOC2)[nH]c2c1C(=O)NCC2` [compound 421], the IC50 was < 100 nM in experiment [1], < 100 nM against pEGFR in CUTO14 cells, > 1000 nM at Ba/F3 cells with EGFR WT and < 100 nM in experiment [2].
Regarding `C=CC(=O)N1[C@@H](COc2cnccc2-c2[nH]c3c(c2Nc2cccc(Cl)c2OC)C(=O)NCC3)C[C@@H]1C` [compound 272], the IC50 (in experiment [1]; against pEGFR in CUTO14 cells; on Ba/F3 cells with EGFR WT; in experiment [2]) was < 100 nM in each case.
Regarding `CC#CC(=O)N1CC[C@@H]1COc1cnccc1-c1[nH]c2c(c1Nc1cccc(C(F)F)c1OC)C(=O)NCC2` [compound 446], the IC50 is < 100 nM in experiment [1], < 100 nM on pEGFR in CUTO14 cells, 100 to 1000 nM at Ba/F3 cells with EGFR WT and < 100 nM in experiment [2].
In the case of `C=CC(=O)NC1(C#Cc2cnccc2-c2[nH]c3c(c2Nc2cccc(F)c2OC)C(=O)NCC3)CN(C)C1` [compound 336], the IC50 was 100 to 1000 nM in experiment [1], 100 to 1000 nM against pEGFR in CUTO14 cells, > 1000 nM on Ba/F3 cells with EGFR WT and 100 to 1000 nM in experiment [2].
For `C=CC(=O)NC1(C#Cc2cnccc2-c2[nH]c3c(c2Nc2cccc(Cl)c2OC)C(=O)NCC3)CCC1` [compound 261], the IC50 was < 100 nM in experiment [1], < 100 nM against pEGFR in CUTO14 cells, 100 to 1000 nM at Ba/F3 cells with EGFR WT and < 100 nM in experiment [2].
With `C=C(F)C(=O)N1CC[C@@H]1COc1cnccc1-c1[nH]c2c(c1Nc1cc(F)cc(F)c1OC)C(=O)NCC2` [compound 365], the IC50 (in experiment [1]; at pEGFR in CUTO14 cells; at Ba/F3 cells with EGFR WT; in experiment [2]) was 100 to 1000 nM each time.
On to `CC#CC(=O)N1CC[C@@H]1COc1cnccc1-c1[nH]c2c(c1Nc1cc(F)cc(Cl)c1OC)C(=O)NCC2` [compound 346], for which the IC50 in experiment [1] is < 100 nM; against pEGFR in CUTO14 cells, < 100 nM; on Ba/F3 cells with EGFR WT, 100 to 1000 nM; in experiment [2] it was < 100 nM.
Regarding `Cc1c(F)cccc1Nc1c(-c2ccncc2C#C[C@@]2(C)CCCN2C(=O)/C=C/CN(C)C)[nH]c2c1C(=O)NCC2` [compound 450], the IC50 is < 100 nM in experiment [1], < 100 nM against pEGFR in CUTO14 cells, 100 to 1000 nM on Ba/F3 cells with EGFR WT and < 100 nM in experiment [2].
With `C=CC(=O)NC1(C#Cc2cnccc2-c2[nH]c3c(c2Nc2cccc(Cl)c2OC)C(=O)NCC3)COC1` [compound 264, N-{3-[2-(4-{3-[(3-chloro-2-methoxyphenyl)amino]-4-oxo-1H,5H,6H,7H-pyrrolo[3,2-c]pyridin-2-yl}pyridin-3-yl)ethynyl]oxetan-3-yl}prop-2-enamide], the concentration for half-maximal inhibition (IC50) in experiment [1] was < 100 nM; on pEGFR in CUTO14 cells, < 100 nM; on Ba/F3 cells with EGFR WT, 100 to 1000 nM; in experiment [2], < 100 nM.
As for `COc1c(F)cccc1Nc1c(-c2ccncc2C#CC2(C)CCN2C(=O)/C=C/CN(C)C)[nH]c2c1C(=O)NCC2` (stereo not shown) [compound 462], the IC50 (in experiment [1]; against pEGFR in CUTO14 cells; at Ba/F3 cells with EGFR WT; in experiment [2]) was > 1000 nM in each case.
`COc1c(F)cccc1Nc1c(-c2ccncc2C#CC(C)(C)NC(=O)/C=C/CN2CC(OC)C2)[nH]c2c1C(=O)NCC2` [compound 393]: the IC50 in experiment [1] was < 100 nM; on pEGFR in CUTO14 cells, < 100 nM; on Ba/F3 cells with EGFR WT, 100 to 1000 nM; in experiment [2] it was < 100 nM.
